The values below come from US20080182274A1, “MONITOR PROTEINS USABLE FOR ANALYZING EXPRESSION OF MEMBRANE PROTEINS” (National Institute of Advanced Industrial Science and …, priority 2007, published 2008).

For this experiment, the system named is monitor protein expressed on the cell membrane. Briefly: Recovery of cell-membrane luminescence after Sulfo-NHS deactivation (intracellular transport of monitor protein). In kind it is cell-based, Chinese hamster. Particulars: CHO-K1 cells expressing pCMV-DL-D3-CD8, 1 mM BFA, up to 6 hours after deactivation, FIG. 6. The procedure: The vector pCMV-DL-D3-CD8 prepared in Example 1 was introduced into an animal cell. Briefly, CHO-K1 cells were seeded on 6-well plates at 1=10^6 cells/well and cultured in D-MEM/Ham's F-12 medium (Wako Purechamical Industries) containing 10% FCS. After overnight culture at 37° C., 4 μg of pCMV-DL-D3-CD8 was added to each well and mixed with 250 μl of Opti-MEM serum-free medium (Gibco RRL) and reacted at room temperature for 5 min. Then, 10 μl of lipofectamine 2000 reacted in 250 μl of Opti-MEM serum-free medium at room temperature for 5 min was mixed with the cells to perform transfection in Opti-MEM serum-free medium. Then, the medium was exchanged for D-MEM/Ham's F-12 medium containing 10% FCS. […] Then, cells were counted, followed by preparation of a cell suspension with a cell density of 2×10^7 cells/ml.
By adding 0.5 mM Sulfo-NHS (Pierce) to the cell suspension, the monitor protein expressed on the cell membrane was inactivated. […] Cells were counted and arranged to give a density of 4×10^5 cells per 100 μl. […] To one aliquot, 2 μl of dinoflagellate-derived luciferin was added and the luminescence activity of the monitor protein expressed on the cell membrane was measured. Other aliquots were subjected to measurement of the amount of ATP-derived luminescence in order to examine whether the cell count is constant in individual samples taken at the above-indicated time points.

For the compound `C[C@H]1CCC/C=C/[C@@H]2C[C@H](O)C[C@H]2[C@H](O)/C=C/C(=O)O1` [BFA, Brefeldin A], the “luminescence derived from the membrane protein expressed on the cell membrane after deactivation treatment” value is reported as “luminescence was not recognized”.
